Legend:
Experiment in all cases: Isozyme specificity of 1,2-dioxetane substrates, rhCYP microsomes, 2-step endpoint assay
CYP2C19 = molecular target: T1, CYP2C19 (Homo sapiens, UniProt P33261); assay type: biochemical
T1 construct: purchased BD/Gentest (or other vendor) 456259; host or cells: recombinant human CYP microsomes
Method: (§1) Assays were performed using the same conditions (25° C., 5 nM rhCyp, 10 μM substrate, 25 min endpoint assay, with isozyme-specific buffers, Luminoscan plate reader) but on different days.
(§2) Cytochrome P450 assays have been developed to determine the isozyme specificity of novel 1,2-dioxetane chemiluminescent CYP450 substrates. In these assays, a 1,2-dioxetane substrate that has been determined to be a good substrate for a specific CYP450 isozyme is screened against individual recombinant (human or other) CYP450 isozymes. The protocol follows the 2-Step Endpoint assay format described above (Example 2, Format 1). The assay can be performed using either assay conditions that mimic an inhibition assay (Example 1) using substrate concentrations near the known or predicted Km of the substrate with its known isozyme, or at concentrations designed for more sensitive enzyme detection which is generally above the Km. Assays can be performed in several different ways depending on the desired information. If one is seeking to find out if the dioxetane is a substrate for different CYP450 isozymes at the specific isozyme's preferred assay conditions, the assays should be performed using the buffer and assay conditions preferred by each specific isozyme (Format 1). If one wants to find out if the dioxetane substrate is selective for a given CYP450 isozyme at that isozyme's preferred assay conditions, the assay should be performed using only the assay conditions of the matched isozyme (Format 2). Assays use recombinant human (rh) CYP450 isozymes (final [5 or 10 nM]), NADPH Regeneration System (final [1×]) and Potassium Phosphate Buffer prepared in a 2× Master Mix. 50 μL of the Master Mix is added to the wells of a 96-well plate. 40 μL of water is added the rows of the plate containing the Master Mix. The reaction is started by addition of 10 μL of a 10× NADP+ (nicotinamide adenine dinucleotide phosphate) and 1,2-Dioxetane Substrate (final [1 to 10 μM]) mix to assay wells. The assays are incubated for either 25 min (Format 1) or at the specific assay time (see Example 48, Format 2).
(§3) • (See FIGS. 3A, 4A, and 5A.) Materials: • rhCytochrome P450 Isozymes: • CYP3A4 (BD/Gentest, Cat #456202) (or other vendor) • CYP2C19 (BD/Gentest, Cat #456259) (or other vendor) • CYP2C9 (BD/Gentest, Cat #456258) (or other vendor) • CYP2D6 (BD/Gentest, Cat #456217) (or other vendor) • CYP1A2 (BD/Gentest, Cat #456203) (or other vendor) • Or Other CYP450 recombinant isozymes • 200 mM Potassium Phosphate Buffer, pH 7.4 • 100 mM Potassium Phosphate Buffer, pH 7.4 • 100× NADP+ • (10 mM NADP+ in 100 mM Potassium phosphate buffer, pH 7.4) • 100× Regeneration System • (333 mM Glucose-6-phosphate, 30 Units/mL Glucose-6-phosphate dehydrogenase in 100 mM Potassium Phosphate Buffer, pH 7.4) • 1,2-Dioxetane Substrates (in 100% Acetonitrile, water, or acetonitrile/water mixture) • 96 well white microplate • Accelerator II Protocol Overview: (See, FIG. 10). Assay Set-Up:
(§4) Contains: • NADP+: 100× stock is 10 mM NADP+ in 100 mM Potassium Phosphate Buffer, pH 7.4 • 100 μM Known 1,2-Dioxetane Substrate Assay Procedure: • 1. Thaw all reagents on ice, except substrates: warm-up to RT under aluminum foil (light sensitive) • 2. Prepare 2× Master Mixes in 2× reaction buffer (keep on ice).
(§5) • 3. Add 50 μL of the specific 2× Master Mix to the desired wells • 4. Add 40 μL of sterile water (H2O) to each well of the plate • 5. Cover plate with plate sealer and let the assay wells equilibrate to 25° C. or room temperature for a few minutes while you prepare the 10×NADP+/Substrate Mixture. • 6. Prepare 10× NADP+/Substrate Mixture immediately before use (light sensitive!)
(§6) • 100× NADP+: 10× (1× final) • H2O: to final volume. • Add substrate by trituration and vortex to allow for maximum substrate solubility in the aqueous mixture. • *The final organic solvent concentration in the assay should be less than 0.1% and preferably much less. • 7. […]

CYP3A family isozymes [1] = molecular target: T2, CYP3A family isozymes (Homo sapiens, UniProt P08684); assay type: biochemical; conditions: FIG. 4A; rhCYP microsomes, 25° C., 25 min, 10 μM substrate, 5 nM rhCYP450, isozyme-preferred potassium phosphate buffer, pH 7.4
T2 construct: purchased BD/Gentest (CYP3A4 only; or other vendor) 456202 (CYP3A4); host or cells: recombinant human CYP microsomes
Method: as §1, §2, §3, §4, §5, §6

CYP3A family isozymes [2] = assay type: biochemical, human; conditions: dioxetane as enzyme substrate
Method: as §1, §2, §3, §4, §5, §6

T1 sequence (P33261 whole entry): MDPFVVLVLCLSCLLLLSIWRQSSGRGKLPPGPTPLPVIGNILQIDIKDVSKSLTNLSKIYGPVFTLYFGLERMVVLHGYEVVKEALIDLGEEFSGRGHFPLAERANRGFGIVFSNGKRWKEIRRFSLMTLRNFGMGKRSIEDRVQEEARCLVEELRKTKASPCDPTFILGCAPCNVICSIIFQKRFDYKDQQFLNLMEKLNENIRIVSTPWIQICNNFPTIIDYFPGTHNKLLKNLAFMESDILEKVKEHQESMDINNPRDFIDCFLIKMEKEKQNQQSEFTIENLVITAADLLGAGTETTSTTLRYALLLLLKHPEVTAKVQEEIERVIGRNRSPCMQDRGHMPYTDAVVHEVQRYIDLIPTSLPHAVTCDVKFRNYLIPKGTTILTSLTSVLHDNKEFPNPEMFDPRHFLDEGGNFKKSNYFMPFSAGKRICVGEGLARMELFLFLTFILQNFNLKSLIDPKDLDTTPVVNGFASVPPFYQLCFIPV
T2 sequence (P08684 whole entry): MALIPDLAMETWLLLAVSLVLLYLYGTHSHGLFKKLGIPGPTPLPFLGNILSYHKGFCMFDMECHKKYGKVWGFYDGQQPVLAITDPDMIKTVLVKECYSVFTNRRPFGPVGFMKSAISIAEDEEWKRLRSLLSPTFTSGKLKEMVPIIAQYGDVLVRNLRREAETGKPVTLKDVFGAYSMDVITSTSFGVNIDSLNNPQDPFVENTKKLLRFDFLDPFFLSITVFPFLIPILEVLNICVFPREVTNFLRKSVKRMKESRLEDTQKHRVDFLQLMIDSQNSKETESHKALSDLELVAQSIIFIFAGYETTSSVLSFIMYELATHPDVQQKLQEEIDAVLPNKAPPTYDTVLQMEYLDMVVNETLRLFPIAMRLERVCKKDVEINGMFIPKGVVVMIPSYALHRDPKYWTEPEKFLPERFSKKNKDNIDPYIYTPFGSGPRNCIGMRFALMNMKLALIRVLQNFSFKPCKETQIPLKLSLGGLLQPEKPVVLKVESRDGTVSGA

COC1(c2cccc(OCc3ccccc3)c2)OOC12C1CC3CC(C1)CC2C3 (stereo not shown) [AMPPD-Bn]
specificity for the CYP2C19 isozyme (CYP2C19; FIG. 4A/5A, rhCYP microsomes, 25° C., 25 min, 10 μM substrate, 5 nM rhCYP450, isozyme-preferred potassium phosphate buffer, pH 7.4): strong specificity | activity from CYP2C19 under CYP2C19 assay conditions (CYP2C19; dioxetane as enzyme substrate, CYP2C19 assay conditions): significant activity | specificity for CYP3A4 isozyme (CYP3A family isozymes [1]): strong specificity | specificity for the CYP3A family isozymes (CYP3A family isozymes [2]): strong specificity

Source: US9856508B2, “Chemiluminescent compositions, methods, assays and kits for oxidative enzymes” (LIFE TECHNOLOGIES CORPORATION, priority 2010, dated 2018)
